Patent US6350410B1, “Method and composition for inhibiting biological fouling in an irrigation system” (CH20 Incorporated, priority 1995, dated 2002)

System: pond water supporting algal and protozoan life, inoculated with bacterium escherichia coli
Assay: Plate count test on pond water sample inoculated with escherichia coli
Format: cell-based
Conditions: for population (plate count): after five days, untreated sample 100 organisms per milliliter
Procedure: A sample of pond water was obtained. […] The pond water was inoculated with a large population of bacterium escherichia coli. A plate count test was run on the pond water sample to determine the population. […] Dilution was performed with pond water to yield a population that would register on a plate count test. One liter of the sample was removed and left untreated.
A second one liter portion was taken from the pond water sample. A composition of about 2% active zinc sulfate was mixed with the water sample to yield active zinc at about 0.1 ppm.
A third one liter portion was taken from the pond water sample. A composition of about 2% active zinc sulfate was mixed with the water sample to yield active zinc at about 10.0 ppm.
A fourth one liter portion was taken from the pond water sample. A zinc chelated product was prepared containing about 2% active zinc sulfate which was chelated on a 1:1 molar ratio with 1-hydroxyethane 1,1-diphosphonic acid (HEDPA). The chelated zinc product was added to the sample to yield chelated zinc at about 0.1 ppm.
A fifth one liter portion was taken from the pond water sample. A zinc chelated product was prepared containing about 2% active zinc sulfate which was chelated on a 1:1 molar ratio with HEDPA. The chelated zinc product was added to the sample to yield chelated zinc at about 10.0 ppm.

SMILES: O=S(=O)([O-])[O-].[Zn+2] [active zinc, zinc sulfate]
- population (plate count) (about 0.1 ppm in one liter pond water sample): 1 organism per milliliter
- population (plate count) (about 10.0 ppm in one liter pond water sample): 6 organisms per milliliter
- treatment of biological fouling (in words) (about 10.0 ppm, compared to the untreated sample): effective treatment
